Values of other authors as cited in patent publication US20160128912A1, “Personal Care Compositions and Hangers” (The Procter & Gamble Company, priority 2014, published 2016).

SMILES	Log (water Solubility in mol/L)
O=C(O)c1ccccc1O [Salicylic acid, reference compound]	−1.41
CCOC(=O)c1ccc(O)cc1 [ethyl paraben]	−1.91
OCc1ccccc1 [benzyl Alcohol]	−0.47
OCCc1ccccc1 [phenethyl alcohol]	−0.83
Oc1cc(Cl)ccc1Oc1ccc(Cl)cc1Cl [Triclosan, reference compound]	−2.46

Further lines, results first:

Log (water Solubility in mol/L)	SMILES
−0.33	C/C=C/C=C/C(=O)O [sorbic acid]
−3.08	CCCCCCC(O)CO (centres unmarked) [caprylyl glycol]
−3.15	C=CCCCCCCCCC(=O)O [Undecylenic Acid]
